Measurements: patent publication EP0533833B1, “PHOSPHOROUS PRODUGS” (priority 1990, dated 1991)
pIC50: −log10 of the molar value. Like-named read-outs stand apart in the source and are kept apart here.

Columns and labels:
HIV = experiment: Antiviral assay, HIV-induced cytopathic effect in CEM cells (tetrazolium/formazan viability readout); format: cell-based; conditions: Human immunodeficiency virus 1, CCRF-CEM; for IC90: read-out: IC₉₀
Procedure: (§1) The antiviral activity of the AZT prodrug was evaluated in the Retrovirus Research Laboratory at Southern Research Institute. The AZT prodrug (Structure 5) was tested against HIV in CEM cells in a standardized assay system. In this assay the CEM cells were grown in microtitre plates and incubated for 6 day with or without a HIV. The cells were incubated with prodrug or AZT at varying concentrations. After 6 days the percentage of viable cells was measured by employing a standardized assay based upon the conversion of a tetrazolium salt to a formazan chromaphore by viable cells. (T.Mossman; J.Immunol.Methods 65:55 (1983)) The production of the chromaphore was measured spectrophotometrically with a Molecular Devices Vmax plate reader at 570 nm. From the optical density data a computer program calculated the per cent reduction in viral cytopathic effect (CPE), the prodrugs cytotoxic effect, and IC₅₀ values.
The IC₅₀ value; defined as that concentration of drug inhibited the HIV induced CPE 50% was 24 nanamolar for the AZT prodrug. […] When the prodrug was added to the cell cultures 8 hours prior to infecting with HIV the IC₅₀ for the prodrug was 5 nanamolar. The IC9₉₀ for the prodrug was 10 nanamolar. The IC₅₀ for AZT under the same conditions was also 5 nanamolar. The IC₉₀ for AZT was 10 nanamolar. The data is summarized in the graph below for an experiment in which the prodrug or AZT were added 8 hours prior to the time of infection with the HIV. [formula] The graph below summarizes the results of an experiment in which the antiviral activity of the AZT prodrug was added 8 hours prior to infection or at the time of infection. [formula]

[1] = molecular target: HIV reverse transcriptase (Human immunodeficiency virus type 1 group M subtype B, UniProt P04585); conditions: read-out: concentration at which HIV reverse transcriptase is inhibited by 50%; cited from earlier work
[2] = Cytotoxicity in uninfected CEM cells (tetrazolium/formazan viability readout); format: cell-based; conditions: human, 6 days, read-out: TC₅₀ (concentration that resulted in a 50% reduction of cell viability in uninfected cells)
Procedure: as §1
The IC₅₀ value; defined as that concentration of drug inhibited the HIV induced CPE 50% was 24 nanamolar for the AZT prodrug. […] When the prodrug was added to the cell cultures 8 hours prior to infecting with HIV the IC₅₀ for the prodrug was 5 nanamolar. The IC9₉₀ for the prodrug was 10 nanamolar. The IC₅₀ for AZT under the same conditions was also 5 nanamolar. The IC₉₀ for AZT was 10 nanamolar. […]

acetylcholinesterase [3] = molecular target: T1, acetylcholinesterase (Gallus gallus, UniProt P36196); experiment: Acetylcholinesterase activity inhibition assay, chicken brain homogenate; format: biochemical; conditions: at 10⁻⁵ M
T1 construct: tested for anticholinesterase acitivity in chicken brain homogenate and electric eel extract; from tissue; host or cells: chicken brain homogenate
T1 sequence (P36196 20-767): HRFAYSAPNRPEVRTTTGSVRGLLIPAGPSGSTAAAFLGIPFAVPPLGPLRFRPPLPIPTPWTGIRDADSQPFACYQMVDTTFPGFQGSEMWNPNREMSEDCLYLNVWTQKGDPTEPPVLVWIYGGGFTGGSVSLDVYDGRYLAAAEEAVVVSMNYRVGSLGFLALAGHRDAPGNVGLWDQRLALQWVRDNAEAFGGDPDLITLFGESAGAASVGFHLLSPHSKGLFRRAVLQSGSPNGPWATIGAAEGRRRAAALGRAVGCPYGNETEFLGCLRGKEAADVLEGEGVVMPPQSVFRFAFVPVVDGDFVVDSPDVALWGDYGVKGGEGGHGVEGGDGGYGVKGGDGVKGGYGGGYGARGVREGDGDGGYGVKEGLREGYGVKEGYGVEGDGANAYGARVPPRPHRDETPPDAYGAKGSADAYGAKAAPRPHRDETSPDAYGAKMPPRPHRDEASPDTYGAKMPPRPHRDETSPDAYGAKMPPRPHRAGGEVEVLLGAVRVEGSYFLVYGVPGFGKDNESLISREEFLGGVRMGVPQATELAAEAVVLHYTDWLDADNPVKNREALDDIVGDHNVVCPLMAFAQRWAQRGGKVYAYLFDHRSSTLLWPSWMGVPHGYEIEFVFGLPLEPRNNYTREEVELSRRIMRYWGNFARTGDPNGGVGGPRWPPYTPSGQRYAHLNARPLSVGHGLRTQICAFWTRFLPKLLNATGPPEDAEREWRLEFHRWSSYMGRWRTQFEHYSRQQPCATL
Procedure: (§2) The AZT prodrug was evaluated for anticholinesterase activity at the Laboratory of Neurotoxicology and Pharmacology at Duke University using a standard well established acetylcholinesterase activity inhibition assay. Elleman et. al.; Biochemical Pharmacology; 7:88 (1962) The prodrug was tested for anticholinesterase acitivity in chicken brain homogenate and electric eel extract.

[4] = Acute toxicity in mice, intraperitoneal; format: in vivo; conditions: IP
acetylcholinesterase [5] = molecular target: T2, acetylcholinesterase (Electrophorus electricus, UniProt O42275); experiment: Acetylcholinesterase activity inhibition assay, electric eel extract; format: biochemical; conditions: at 10⁻⁵ M
T2 construct: tested for anticholinesterase acitivity in chicken brain homogenate and electric eel extract; from tissue
Procedure: as §2

[6] = cited from earlier work
[7] = added 8 hours prior to infecting with HIV, read-out: IC₅₀
[8] = added 8 hours prior to infecting with HIV

T2 sequence (O42275 24-633): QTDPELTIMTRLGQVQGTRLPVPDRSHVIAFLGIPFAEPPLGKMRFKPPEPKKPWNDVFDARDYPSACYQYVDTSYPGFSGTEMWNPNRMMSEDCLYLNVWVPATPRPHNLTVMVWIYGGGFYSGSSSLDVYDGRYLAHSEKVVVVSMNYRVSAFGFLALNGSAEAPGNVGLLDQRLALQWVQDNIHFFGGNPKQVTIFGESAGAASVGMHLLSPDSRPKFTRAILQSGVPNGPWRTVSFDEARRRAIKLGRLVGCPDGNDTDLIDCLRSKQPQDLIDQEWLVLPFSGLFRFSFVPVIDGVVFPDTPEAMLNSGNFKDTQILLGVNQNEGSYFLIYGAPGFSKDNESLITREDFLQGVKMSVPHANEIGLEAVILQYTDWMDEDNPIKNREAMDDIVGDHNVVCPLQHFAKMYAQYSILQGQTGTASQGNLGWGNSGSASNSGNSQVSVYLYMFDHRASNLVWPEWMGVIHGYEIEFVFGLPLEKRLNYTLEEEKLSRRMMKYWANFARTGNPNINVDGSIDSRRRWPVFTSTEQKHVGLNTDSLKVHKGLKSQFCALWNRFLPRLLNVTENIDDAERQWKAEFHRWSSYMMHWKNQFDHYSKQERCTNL

Cc1cn([C@H]2C[C@H](N=[N+]=[N-])[C@@H](CO)O2)c(=O)[nH]c1=O [AZT, 3'azido-3'deoxythymidine, reference compound]
pIC50 (HIV; [7]): 8.30 | IC90 (HIV; [8]): 10 nM

O=C(O)P(=O)(O)O [Phosphonoformate]
pIC50 [1]: > 5.70

CCOC(=O)CC(OP(=O)(OC[C@H]1O[C@@H](n2cc(C)c(=O)[nH]c2=O)C[C@@H]1N=[N+]=[N-])OC(CC(=O)OCC)c1ccc(OC(C)=O)cc1)c1ccc(OC(C)=O)cc1 (stereo partly drawn) [AZT prodrug]
CC50 at 144 h [2]: 7800 nM | inhibition of acetylcholinesterase activity (acetylcholinesterase [3]): No inhibition | acute toxicity ([4]; mice, 100 mg/kg as an emulsion in 5% Emulphor EL 620): no acute toxicity | acute toxicity ([4]; one mouse, 300 mg/kg, 24 hour period of observation): without evident acute toxicity | inhibition of acetylcholinesterase activity (acetylcholinesterase [5]): No inhibition | pIC50 (HIV; 144 h, 6 days, drug not added before infection, read-out: IC₅₀ (concentration that inhibited the HIV induced CPE 50%)): 7.62 | pIC50 (HIV; [7]): 8.30 | IC90 (HIV; [8]): 10 nM

COc1cc(C=CC(C)=O)ccc1O [methyl 4-hydroxy,3-methoxy-styryl ketone]
oral LD₅₀ [6]: > 2 grams/kg
